The results in this text go back to PubChem BioAssay (NCI).

Holding throughout (assay): NCI-60 cell line screen, 48 h
For experiment [1], the system named is BT-549 breast.
Experiment [2] relates to HCC-2998 colon.
The subject of experiment [3] is RPMI-8226 leukemia.
The subject of experiment [4] is NCI-H23 lung.
Experiment [5] relates to MALME-3M melanoma.
For experiment [6], the system named is HT29 colon.
The test system of experiment [7] is MCF7 breast.
The subject of experiment [8] is SK-MEL-5 melanoma.
For experiment [9], the system named is SNB-75 CNS.
In experiment [10] the test system is T-47D breast.

The structures appear in SMILES notation.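 Interpolation was linear, between the two tested concentrations surrounding the appropriate level; five concentrations were tested over 48 hours in 96-well plates. GI50 marks 50% less growth. TGI denotes the concentration required for complete inhibition of growth.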

As to `COc1cc(C)cc2c1c(=O)c1ccccc1n2C`, the TGI in experiment [1] is more than 100 µM; in experiment [2], more than 100 µM; in [3], 66 µM; in experiment [4] it was more than 100 µM; in [5], more than 100 µM; in [6], more than 100 µM. Further, the TGI in experiment [7] is more than 100 µM; in experiment [8], 51.3 µM; in [9], 99.4 µM.

Take `CCOC(=O)c1sc(N/N=C2\NC(=O)/C(=C/c3ccc([N+](=O)[O-])cc3)S2)nc1C`: the TGI in [1] was 74.5 µM; in experiment [10], 45.4 µM; in [2], 85.3 µM; in [4], 80.5 µM; in [6] it was 51 µM; in experiment [7] it was 72.5 µM. In addition, the TGI in experiment [8] came out at 31 µM; in experiment [9], 74.6 µM.

With `O=C(Cc1csc(N=Nc2c(O)[nH]c3ccccc23)n1)Nc1ccccc1`, the TGI in experiment [1] was more than 100 µM; in [10], more than 100 µM; in [2], 94.3 µM; in experiment [4] it was more than 100 µM; in [6], 59 µM; in experiment [7], more than 100 µM. Also, the TGI in experiment [8] is more than 100 µM; in [9], 86.9 µM.

As to `CCCCc1ccc(Nc2nc(=S)c3[nH]cnc3[nH]2)cc1`, the TGI is 39 µM in experiment [1]; 49.3 µM in experiment [10]; 66.4 µM in experiment [2]; 90.4 µM in [3]; 51.7 µM in experiment [4]; 37 µM in experiment [5]. Further, the TGI in [6] was 22 µM; in [8], 25.5 µM.

Consider `CCOC(=O)Cc1csc2[n+]1C(=O)/C(=C/c1cccc(OC)c1O)S2`, for which the TGI is 48.9 µM in experiment [1]; more than 100 µM in [10]; more than 100 µM in experiment [2]; more than 100 µM in experiment [4]; more than 100 µM in experiment [6]; more than 100 µM in [7]. The TGI in experiment [8] and in experiment [9] was more than 100 µM each time.

On to `CCCCOC(=O)NC(Nc1cccc(C(F)(F)F)c1)(C(F)(F)F)C(F)(F)F`, for which the TGI in experiment [10] is 45.3 µM; in experiment [3], 61.5 µM; in experiment [4], more than 100 µM; in experiment [5], more than 100 µM; in experiment [6] it was more than 100 µM; in experiment [7], more than 100 µM. The TGI in [8] and in experiment [9] was more than 100 µM throughout.

On to `CCCC(=O)O[C@H]1C=C2C[C@@]34SS[C@]5(CC6=C[C@H](OC(C)=O)[C@@H]7O[C@@H]7[C@H]6N5C3=O)C(=O)N4[C@@H]2[C@H]2O[C@H]21`, for which the TGI turned out to be 0.605 µM in [10]; 0.0194 µM in [2]; 2.29 µM in [3]; 0.291 µM in [4]; 0.0239 µM in [5]; 0.0166 µM in experiment [6]. Further, the results for the TGI in experiment [7], in experiment [8] and in experiment [9] were 0.226 µM, 0.655 µM and 0.331 µM, respectively.

Turning to `CC(C)CCC[C@@H](C)C1CCC2[C@@H]3CC=C4C[C@@H](C(=O)NCC[N+](C)(C)CCCS(=O)(=O)[O-])CC[C@]4(C)C3CC[C@@]21C` (stereo partly specified), the TGI was 35.2 µM in experiment [2]; 41.5 µM in experiment [3]; 33.3 µM in experiment [5]; 33 µM in experiment [6]; 41.4 µM in [8]; 35.1 µM in experiment [9].

As to `Cc1cccc(CC(Cc2c(C)cccc2C(=O)O)C(=O)O)c1` (stereo unspecified), the TGI in experiment [1], in experiment [2], in [3], in experiment [4], in experiment [5] and in experiment [6] was more than 100 µM each time. The TGI is more than 100 µM in experiment [7], 37.2 µM in experiment [8] and more than 100 µM in experiment [9].

As to `C=C(C)CC1(O)C(=O)C(OCC)=C1OCC` (stereo unspecified), the TGI in experiment [1], in experiment [10], in [4], in experiment [5], in experiment [6] and in experiment [7] was more than 100 µM in each case. For the same compound, the TGI in [8] and in experiment [9] was more than 100 µM each time.

Take `C/C=C\C(CC(=O)NCCC1CN(S(=O)(=O)C(F)(F)F)c2ccccc21)CC(=O)OC` (stereo unspecified): the TGI in experiment [1] was 67.1 µM; in [2], more than 100 µM; in [3], more than 100 µM; in experiment [4], more than 100 µM; in [5], 45.9 µM; in experiment [6], 51.3 µM. For the same compound, the TGI in experiment [7] was more than 100 µM; in [8], 41.4 µM.

For `O=c1[nH]c2cc([N+](=O)[O-])ccc2nc1/C(=N/Nc1ccccc1)C(O)c1ccc(C(O)/C(=N\Nc2ccccc2)c2cnc3cc([N+](=O)[O-])ccc3n2)cc1` (stereo unspecified), the TGI in [2] was 87.1 µM; in experiment [3] it was more than 100 µM; in [4], more than 100 µM; in experiment [5] it was more than 100 µM; in [6], more than 100 µM; in experiment [8] it was more than 100 µM.

With `CC(C)(C)NC(=O)NC12CC3CC(CC(F)(C3)C1)C2`, the TGI in [2], in [3], in experiment [4], in experiment [5], in experiment [6] and in experiment [9] was more than 100 µM in each case.

Turning to `Cc1cc(S(=O)(=O)/N=C(\[N-]S(=O)(=O)c2ccc(Cl)cc2)[n+]2ccc(N(C)C)cc2)c(S)cc1Cl`, the TGI in experiment [10], in experiment [2], in experiment [3], in experiment [4], in experiment [6] and in [7] was more than 100 µM throughout. Also, the TGI in [8] is more than 100 µM.

For `CCOC(=O)Cc1csc2[n+]1C(=O)/C(=C\c1cccc(Cl)c1Cl)S2`, the TGI in [1] is 49 µM; in [2] it was 39.7 µM; in [4] it was 48.9 µM; in experiment [6], 41.2 µM; in experiment [7] it was more than 100 µM; in experiment [8], 30.6 µM. In addition, the TGI in experiment [9] is 76.6 µM.

Turning to `COc1cc(/C=C/c2cc(/C=C/c3ccc(O)c(OC)c3)nc(N)n2)ccc1O`, the GI50 was 2.83 µM in experiment [10]; 1.75 µM in experiment [2]; 1.29 µM in experiment [3]; 2.71 µM in experiment [5]; 0.314 µM in experiment [6]; 1.81 µM in experiment [7]. The figures for the GI50 in experiment [8] and in experiment [9] were 1.49 µM and 1.26 µM, respectively. Also, the TGI in experiment [10] is 9.55 µM; in [2], 3.19 µM; in [3] it was 4.18 µM; in experiment [5], 6.76 µM; in [6], 0.948 µM; in [7], 6.33 µM. Moreover, the TGI in experiment [8] stood at 2.89 µM; in [9], 3.34 µM.
